The record followed here is US10611778B2, “Fused bicyclic inhibitors of menin-MLL interaction” (Janssen Pharmaceutica NV, priority 2016, dated 2020).

The target of test [1] is T1, Menin/MLL (menin, FITC-MBM1 peptide) (Homo sapiens, UniProt O00255, T541A).
T1 construct: 6xHis (C)
T1 sequence (O00255 with tags, fused parts or gaps T541A): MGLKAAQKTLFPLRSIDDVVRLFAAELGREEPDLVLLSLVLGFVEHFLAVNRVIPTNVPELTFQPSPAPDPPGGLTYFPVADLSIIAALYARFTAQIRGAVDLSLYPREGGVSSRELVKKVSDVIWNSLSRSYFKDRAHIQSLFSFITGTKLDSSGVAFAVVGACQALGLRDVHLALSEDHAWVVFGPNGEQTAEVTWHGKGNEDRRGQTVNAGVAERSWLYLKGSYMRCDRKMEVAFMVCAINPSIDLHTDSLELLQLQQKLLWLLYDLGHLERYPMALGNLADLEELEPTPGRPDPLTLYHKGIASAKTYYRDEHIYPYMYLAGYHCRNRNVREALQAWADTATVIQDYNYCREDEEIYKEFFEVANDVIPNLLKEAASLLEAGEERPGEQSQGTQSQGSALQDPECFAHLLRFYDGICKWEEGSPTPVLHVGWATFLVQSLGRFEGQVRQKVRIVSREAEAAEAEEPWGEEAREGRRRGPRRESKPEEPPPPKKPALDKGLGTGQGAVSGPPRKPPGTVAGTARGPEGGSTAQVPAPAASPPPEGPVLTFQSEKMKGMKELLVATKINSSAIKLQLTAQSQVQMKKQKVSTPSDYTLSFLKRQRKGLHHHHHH
Put plainly: Menin/MLL fluorescence polarization (FP) assay. The class given is binding. As to conditions: averaged values over all measurements; read-out: Menin FP assay (IC50). The method, then: Pharmacological Part 1) Menin/MLL Fluorescence Polarization Assay
To a non-surface binding, black 384-well microtiter plate was added 50 nL 160× test compound in DMSO and 4 μL 2× menin in assay buffer (40 mM Tris-HCl, pH 7.5, 50 mM NaCl, 1 mM DTT and 0.001% Tween 20). After incubation of test compound and menin for 10 min at ambient temperature, 4 μL 2×FITC-MBM1 peptide (FITC-β-alanine-SARWRFPARPGT-NH2) in assay buffer was added, the microtiter plate centrifuged at 1000 rpm for 1 min and the assay mixtures incubated for 15 min at ambient temperature. The relative amount of menin: FITC-MBM1 complex present in an assay mixture is determined by measuring the fluorescence polarization (FP) of the FITC label with a BMG Pherastar plate reader (ex. 485 nm/em. 520 nm) at ambient temperature. The final concentrations of reagents in the binding assay are 100 nM menin, 5 nM FITC-MBM1 peptide and 0.625% DMSO in assay buffer. Dose-response titrations of test compounds are conducted using an 11 point, three-fold serial dilution scheme, starting at 31 μM.
Compound potencies were determined by first calculating % inhibition at each compound concentration according to equation 1: % inhibition=((HC−LC)−(FP^compound−LC))/(HC−LC))*100 (Eqn 1)
Where LC and HC are the FP values of the assay in the presence or absence of a saturating concentration of a compound that competes with FITC-MBM1 for binding to menin, and FP^compound is the measured FP value in the presence of the test compound. HC and LC FP values represent an average of at least 16 replicates per plate.
(§1) Where Bottom and Top are the lower and upper asymptotes of the dose-response curve, respectively, IC50 is the concentration of compound that yields 50% inhibition of signal and h is the Hill coefficient.

The target in test [2] is T2, Menin/MLL (terbium chelate-labeled menin, FITC-MBM1 peptide) (Homo sapiens, UniProt O00255, T541A).
T2 construct: Menin (a.a. 1-610-6×his tag) was labeled with terbium cryptate as follows
T2 sequence (O00255 with tags, fused parts or gaps T541A): T1 sequence (O00255 with tags, fused parts or gaps T541A)
Description: Menin/MLL homogenous time-resolved fluorescence (HTRF) assay. As to conditions: averaged values over all measurements; read-out: Menin HTRF assay (IC50). The format is binding. The method, then: 3) Menin/MLL Homogenous Time-Resolved Fluorescence (HTRF) Assay
To an untreated, white 384-well microtiter plate was added 40 nL 200× test compound in DMSO and 4 μL 2× terbium chelate-labeled menin (vide infra for preparation) in assay buffer (40 mM Tris-HCl, pH 7.5, 50 mM NaCl, 1 mM DTT and 0.05% Pluronic F-127). After incubation of test compound and terbium chelate-labeled menin for 5 min at ambient temperature, 4 μL 2×FITC-MBM1 peptide (FITC-β-alanine-SARWRFPARPGT-NH2) in assay buffer was added, the microtiter plate centrifuged at 1000 rpm for 1 min and the assay mixtures incubated for 15 min at ambient temperature. The relative amount of menin⋅FITC-MBM1 complex present in an assay mixture is determined by measuring the homogenous time-resolved fluorescence (HTRF) of the terbium/FITC donor/acceptor fluorophore pair using a BMG Pherastar plate reader (ex. 337 nm/terbium em. 490 nm/FITC em. 520 nm) at ambient temperature. The degree of fluorescence resonance energy transfer (the HTRF value) is expressed as the ratio of the fluorescence emission intensities of the FITC and terbium fluorophores (F^em 520 nm/F^em 490 nm). The final concentrations of reagents in the binding assay are 100 pM terbium chelate-labeled menin, 75 nM FITC-MBM1 peptide and 0.5% DMSO in assay buffer. Dose-response titrations of test compounds are conducted using an 11 point, three-fold serial dilution scheme, starting at 31 μM.
Compound potencies were determined by first calculating % inhibition at each compound concentration according to equation 1: % inhibition=((HC−LC)−(HTRF^compound−LC))/(HC−LC))*100 (Eqn 1)
Where LC and HC are the HTRF values of the assay in the presence or absence of a saturating concentration of a compound that competes with FITC-MBM1 for binding to menin, and HTRF^compound is the measured HTRF value in the presence of the test compound. HC and LC HTRF values represent an average of at least 16 replicates per plate.
as §1
Preparation of Terbium cryptate labeling of Menin: Menin (a.a. 1-610-6×his tag) was labeled with terbium cryptate as follows. 2 mg of Menin was buffer exchanged into 1× phosphate buffered saline. 16 uM Menin was incubated with 4-fold molar excess NHS-terbium cryptate (Cisbio Bioassays, Bedford, Mass.) for 2 hours at room temperature. The labeled protein was purified away from free label by running the reaction over a Superdex 200 Increase 10/300 GL column at 0.75 ml/min. Peak fractions were collected, aliquoted and frozen at −80° C.

The subject of test [3] is MV-4-11. Description: Proliferation assay (spheroid assay) MV-4-11. As to conditions: Homo sapiens, MV4-11, MV-4-11; averaged values over all measurements; read-out: Spheroid assay MV-4-11 (IC50). The class given is cell-based, human. The method, then:
(§2) The anti-proliferative effect of menin/MLL protein/protein interaction inhibitor test compounds was assessed in human leukemia cell lines. The cell lines MV-4-11 and MOLM14 harbor MLL translocations and express the MLL fusion proteins MLL-AF4 and MLL-AF9, respectively, as well as the wildtype protein from the second allele. […] K562 and KG1 were used as a control cell lines containing two MLL wildtype alleles in order to exclude compounds that display general cytotoxic effects.
(§3) MV-4-11 and MOLM14 were cultured in RPMI-1640 (Sigma Aldrich) supplemented with 10% fetal bovine serum (HyClone), 2 mM L-glutamine (Sigma Aldrich) and 50 μg/ml gentamycin (Gibco). K562 were propagated in RPMI-1640 (Sigma Aldrich) supplemented with 20% fetal bovine serum (HyClone), 2 mM L-glutamine (Sigma Aldrich) and 50 μg/ml gentamycin (Gibco). KG1 were cultured in Iscove's MDM (Gibco) supplemented with 20% fetal bovine serum (HyClone), 2 mM L-glutamine (Sigma Aldrich) and 50 μg/ml gentamycin (Gibco).
(§4) In order to assess the anti-proliferative effects, 1,500 MV-4-11, 300 MOLM14, 750 K562 or 1,300 KG1 cells were seeded in 200 μl media per well in 96-well round bottom, ultra-low attachment plates (Costar, catalogue number 7007). Cell seeding numbers were chosen based on growth curves to ensure linear growth throughout the experiment. Test compounds were added at different concentrations and the DMSO content was normalized to 0.3%. Cells were incubated for 8 d at 37° C. and 5% CO2. Spheroid like growth was monitored in real-time by live-cell imaging (IncuCyteZOOM, Essenbio, 4× objective) acquiring one image every four hours for 8 d. Confluence (%) as a measure of spheroid size was determined using an integrated analysis tool.
(§5) In order to determine the cumulative effect of the test compounds over time, the area under the curve (AUC) in a plot of confluence against time was calculated. Confluence at the beginning of the experiment (t=0) was used as baseline for the AUC calculation.
(§6) Absolute IC50 values were calculated according to the following procedure: % Control=(AUC sample/AUC control)*100
(§7) AUC control=mean AUC of control values (cells without compound/DMSO as vehicle control)
(§8) A non-linear curve fit was applied using the least squares (ordinary) fit method to the plot of % control versus compound concentration. Based on this, the absolute IC50 value (half maximal inhibitory concentration of the test compound causing an anti-proliferative effect of 50% relative to the vehicle control) was calculated.

Test [4] concerns MOLM14. Description: Proliferation assay (spheroid assay) MOLM14. The class given is cell-based, human. As to conditions: Homo sapiens, MOLM-14, MOLM14; averaged values over all measurements; read-out: Spheroid assay MOLM14 (IC50). The method, then:
as §2, §3, §4, §5, §6, §7, §8

In general, IC50 refers to the concentration that inhibits the measured activity by half. `Cn1ccc(CN2CC[C@@H]3CN(c4ncnc5sc(CC(F)(F)F)cc45)CC[C@@H]32)n1` (single isomer, unassigned) [Compound 14]: in test [1], the IC50 stood at 1120 nM. Turning to `O=S(=O)(c1ccccc1)N1CC[C@H]2CN(c3ncnc4sc(CC(F)(F)F)cc34)CC[C@H]21` (single isomer, unassigned) [Compound 17], the IC50 in test [1] was determined as 1850 nM.

On to `CC(C)CN1CC[C@@H]2CN(c3ncnc4sc(CC(F)(F)F)cc34)C[C@@H]21` (single isomer, unassigned) [Compound 28A], for which the values for the IC50 in test [1] and in test [2] were 1170 nM and 1730 nM, respectively. For `CC(C)CN1CC[C@H]2CN(c3ncnc4sc(CC(F)(F)F)cc34)C[C@H]21` (single isomer, unassigned) [Compound 28B], the results for the IC50 in test [1] and in test [2] were 1380 nM and 2490 nM, respectively. Consider `O=C(c1ccccc1)N1CCC(CN2CC[C@@H]3CN(c4ncnc5sc(CC(F)(F)F)cc45)C[C@@H]3C2)CC1` (single isomer, unassigned) [Compound 94], for which the IC50 in test [2] was determined as 18 nM; in test [3], 430 nM. Turning to `O=C(C1COC1)N1CCC(CN2CC[C@@H]3CN(c4ncnc5sc(CC(F)(F)F)cc45)C[C@@H]3C2)CC1` (single isomer, unassigned) [Compound 95], the IC50 came to 69 nM in test [2] and 2100 nM in test [3].

With `O=C(c1cccnc1)N1CCC(CN2CC[C@@H]3CN(c4ncnc5sc(CC(F)(F)F)cc45)C[C@@H]3C2)CC1` (single isomer, unassigned) [Compound 96], the IC50 in test [2] came to 45 nM; in test [3] it was 1000 nM. In the same order, the values of `COCCn1cc(CN2CC[C@@H]3CN(c4ncnc5sc(CC(F)(F)F)cc45)C[C@@H]3C2)cn1` (single isomer, unassigned) [Compound 97] are 150 nM and 2000 nM. In the case of `CCOc1ccc(CN2CC[C@@H]3CN(c4ncnc5sc(CC(F)(F)F)cc45)C[C@@H]3C2)cn1` (single isomer, unassigned) [Compound 103], the IC50 in test [2] is 106 nM; in test [3] it was 1100 nM.

`Nc1ccc(CN2CC[C@@H]3CN(c4ncnc5sc(CC(F)(F)F)cc45)C[C@@H]3C2)cn1` (single isomer, unassigned) [Compound 105]: the values for the IC50 in test [2] and in test [3] were 11 nM and 220 nM, respectively. On to `CNc1ccc(CN2CC[C@@H]3CN(c4ncnc5sc(CC(F)(F)F)cc45)C[C@@H]3C2)cn1` (single isomer, unassigned) [Compound 106], for which the IC50 in test [2] was found to be 10 nM; in test [3] it was 190 nM. With `CNc1cc(CN2CC[C@@H]3CN(c4ncnc5sc(CC(F)(F)F)cc45)C[C@@H]3C2)ccn1` (single isomer, unassigned) [Compound 107], the IC50 in test [2] came to 23 nM; in test [3] it was 340 nM. Turning to `O=C(c1ccncc1)N1CCC(CN2CC[C@@H]3CN(c4ncnc5sc(CC(F)(F)F)cc45)C[C@@H]3C2)CC1` (single isomer, unassigned) [Compound 108], the IC50 was determined as 23 nM in test [2] and 870 nM in test [3]. With `[CH3][Ge]([CH3])([CH3])[CH2]N1CCC2CN(c3ncnc4sc(CC(F)(F)F)cc34)CCC21` (centres unmarked) [Compound 15], the IC50 was 130 nM in test [1] and 120 nM in test [2]. In the case of `O=S(=O)(c1ccccc1)N1CC[C@@H]2CN(c3ncnc4sc(CC(F)(F)F)cc34)CC[C@@H]21` [Compound 16], in test [1], the IC50 came out at 1530 nM. With `Cn1ccnc1CN1CCC2CN(c3ncnc4sc(CC(F)(F)F)cc34)CCC21` (centres unmarked) [Compound 19], the half-inhibitory concentration (IC50) in test [1] was 1770 nM; in test [2], 4570 nM. In the same order, the values of `Cn1cc(CN2CCCC3C2CCN3c2ncnc3sc(CC(F)(F)F)cc23)cn1` (centres unmarked) [Compound 21] are 1770 nM and 2120 nM.

Take `FC(F)(F)Cc1cc2c(N3CCC4C(CCN4Cc4ncc[nH]4)C3)ncnc2s1` (centres unmarked) [Compound 22]: in test [1], the IC50 was 2410 nM.

Consider `NCCn1cc(CN2CCC3CN(c4ncnc5sc(CC(F)(F)F)cc45)CCC32)cn1` (centres unmarked) [Compound 26], for which the IC50 was found to be 54 nM in test [2], 4700 nM in test [3] and 5.6 µM in test [4].
